# Laboratory results: ChEMBL document CHEMBL1201862, “PubChem BioAssay data set” (2004)
# The source made the active and inactive calls.
# What was measured:
# [1] = target: Dual specificity protein kinase CLK1 (Homo sapiens, UniProt P49759); assay: inhibition of human CLK1 activity – biochemical, cherry-picked samples, selectivity assay for Dyrk1A inhibitor project, dose response (AID 588811)
# [2] = target: Induced myeloid leukemia cell differentiation protein Mcl-1 (Homo sapiens, UniProt Q07820); format: functional
# [3] = target: T1, Lysine-specific demethylase 4C (Homo sapiens, UniProt Q9H3R0); assay: inhibition of JMJD2C H3K9me3 demethylation – biochemical, DELFIA europium, cherry-picked samples, dose response (AID 488835); format: functional
# T1 sequence (Q9H3R0 whole entry): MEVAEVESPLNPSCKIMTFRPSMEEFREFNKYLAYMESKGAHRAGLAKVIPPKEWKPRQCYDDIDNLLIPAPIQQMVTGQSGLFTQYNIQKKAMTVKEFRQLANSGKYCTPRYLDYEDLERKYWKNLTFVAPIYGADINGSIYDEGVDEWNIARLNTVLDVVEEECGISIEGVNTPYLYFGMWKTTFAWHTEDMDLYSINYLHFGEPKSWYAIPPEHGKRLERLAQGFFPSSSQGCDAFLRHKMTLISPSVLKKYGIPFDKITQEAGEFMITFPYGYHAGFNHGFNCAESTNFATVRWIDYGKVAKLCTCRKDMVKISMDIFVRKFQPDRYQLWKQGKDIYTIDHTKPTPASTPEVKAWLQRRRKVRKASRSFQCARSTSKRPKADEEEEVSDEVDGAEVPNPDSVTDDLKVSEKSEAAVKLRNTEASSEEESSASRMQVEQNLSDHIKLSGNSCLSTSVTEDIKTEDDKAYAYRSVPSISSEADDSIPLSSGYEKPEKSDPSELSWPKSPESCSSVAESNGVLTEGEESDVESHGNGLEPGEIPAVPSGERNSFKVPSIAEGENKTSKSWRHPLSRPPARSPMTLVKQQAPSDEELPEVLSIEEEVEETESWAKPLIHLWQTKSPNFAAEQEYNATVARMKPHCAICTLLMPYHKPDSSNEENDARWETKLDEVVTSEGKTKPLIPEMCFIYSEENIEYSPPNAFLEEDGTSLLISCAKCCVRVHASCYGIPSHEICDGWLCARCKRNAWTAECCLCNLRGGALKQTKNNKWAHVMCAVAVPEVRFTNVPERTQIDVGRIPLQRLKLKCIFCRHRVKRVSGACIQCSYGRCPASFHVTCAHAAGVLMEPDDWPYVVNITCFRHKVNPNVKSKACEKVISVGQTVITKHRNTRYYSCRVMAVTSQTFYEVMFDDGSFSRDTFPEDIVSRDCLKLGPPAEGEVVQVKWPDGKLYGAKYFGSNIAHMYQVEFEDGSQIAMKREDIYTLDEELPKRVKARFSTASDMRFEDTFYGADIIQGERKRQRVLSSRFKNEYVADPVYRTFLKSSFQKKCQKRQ
# Hexokinase HKDC1 [4] = target: T2, Hexokinase HKDC1 (Homo sapiens, UniProt Q2TB90); assay: inhibition of HKDC1 glucose phosphorylation – biochemical, W721R variant, dose response (AID 504729); format: functional
# T2 sequence (Q2TB90 whole entry): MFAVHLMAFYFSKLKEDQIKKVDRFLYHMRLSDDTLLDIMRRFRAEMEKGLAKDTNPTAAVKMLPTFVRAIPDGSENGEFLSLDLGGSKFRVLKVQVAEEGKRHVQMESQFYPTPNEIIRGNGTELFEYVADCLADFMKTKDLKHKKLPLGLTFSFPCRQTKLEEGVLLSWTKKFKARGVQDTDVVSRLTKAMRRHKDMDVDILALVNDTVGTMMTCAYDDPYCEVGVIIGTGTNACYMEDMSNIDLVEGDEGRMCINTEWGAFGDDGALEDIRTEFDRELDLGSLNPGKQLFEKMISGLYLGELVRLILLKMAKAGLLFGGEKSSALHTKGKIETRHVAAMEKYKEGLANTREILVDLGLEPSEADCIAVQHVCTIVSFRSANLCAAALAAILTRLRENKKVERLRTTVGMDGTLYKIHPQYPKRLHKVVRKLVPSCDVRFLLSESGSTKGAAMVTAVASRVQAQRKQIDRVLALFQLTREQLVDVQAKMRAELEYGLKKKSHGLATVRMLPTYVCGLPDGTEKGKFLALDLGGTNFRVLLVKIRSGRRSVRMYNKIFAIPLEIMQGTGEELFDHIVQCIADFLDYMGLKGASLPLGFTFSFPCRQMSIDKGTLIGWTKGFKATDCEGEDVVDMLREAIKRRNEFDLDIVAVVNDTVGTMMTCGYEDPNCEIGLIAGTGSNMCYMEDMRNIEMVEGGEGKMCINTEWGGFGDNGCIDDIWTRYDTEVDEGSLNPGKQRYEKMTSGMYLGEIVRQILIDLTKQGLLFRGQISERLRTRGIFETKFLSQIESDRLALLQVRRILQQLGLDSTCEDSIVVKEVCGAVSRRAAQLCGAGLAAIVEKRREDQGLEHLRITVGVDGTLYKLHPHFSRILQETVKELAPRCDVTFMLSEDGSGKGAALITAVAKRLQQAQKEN
# Hexokinase-1 = Hexokinase-1 (Homo sapiens, UniProt P19367); assay: SAR analysis of small molecule inhibitors of hexokinase domain containing I (HKDC1) in the hexokinase 1 selectivity assay. [Related pubchem assays (depositor defined):AID493160, AID493190]; format: functional
# [5] = target: Eukaryotic translation initiation factor 4E (Mus musculus, UniProt P63073); assay: blockers of eIF4G binding by eIF4E – biochemical, TR-FRET, dose response (AID 855); format: functional;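 note: potency for disrupting eIF4E binding to eIF4GI seen as loss of FRET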
# INS1 = assay: INS-1E survival protection against cytokine death – cell-based, luminescence, retest, dose response (AID 449756); format: functional; settings: Rattus norvegicus;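 note: cell death triggered by IL-1 beta plus TNF-alpha plus IFN-gamma mixture; protective hits raise ATP signal compared with cytokine alone wells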
# Hexokinase HKDC1 [6] = target: T2, Hexokinase HKDC1; assay: SAR analysis of small molecule inhibitors of hexokinase domain containing I (HKDC1). [Related pubchem assays (depositor defined):AID493160, AID493190]; format: functional
# [7] = target: Dual specificity tyrosine-phosphorylation-regulated kinase 1A (Rattus norvegicus, UniProt Q63470); format: biochemical, Homo sapiens
# H4 = assay: Luminescence Cell-Based Dose Response HTS to Identify Activators of 5'UTR Stem-Loop Driven Prion Protein mRNA Translation in H4 Neuroglioblastoma Cells. [Related pubchem assays: 1829 (Project Summary), 1814 (Primary HTS)]; format: functional; settings: Homo sapiens
# Beta-galactosidase = Beta-galactosidase (Escherichia coli, UniProt Q8VNN2); assay: PubChem AID 485352; format: functional
# [8] = target: Type-1 angiotensin II receptor (Homo sapiens, UniProt P30556); assay: antagonism of angiotensin II type 1 receptor – cell-based, uHTS hits, selectivity assay for APJ receptor antagonist project, dose response (AID 463214); format: functional;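 note: antagonist potency against angiotensin II stimulated AT1 response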
# [9] = target: Beta-2 adrenergic receptor (Homo sapiens, UniProt P07550); assay: ADRB2 activation measured by internalization – cell-based, FAP fluorogen, flow cytometry, cherry pick 1, dose response (AID 588763); format: functional
# [10] = target: COUP transcription factor 2 (Homo sapiens, UniProt P24468); assay: Luminescence-based cell-based high throughput dose response assay to identify inhibitors of COUP-TFII (NR2F2).; format: functional;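 note: HEK293 cells transiently cotransfected with COUP-TFII expression vector and reporter; luciferase reporter luminescence driven by COUP-TFII from the pX2-168 reporter plasmid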
# Jurkat = assay: blockers of NF-kB activation in T cells – Jurkat, luciferase reporter, luminescence, B- and T-cell, dose response (AID 489004); format: functional, cell-based; settings: Homo sapiens;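 note: NF-kB luciferase reporter Jurkat cells stimulated with PMA plus ionomycin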
# [11] = HEK-293T viability loss, compound-treated – cell-based, uHTS hits, cytotoxicity control for B/T-cell NF-kB inhibitor project, dose response (AID 489019); format: functional;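 note: IC50 reflects cytotoxicity as loss of cell viability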
# [12] = Luminescence Cell-Based Dose Confirmation HTS to Identify Activators of 5'UTR Stem-Loop Driven Alpha-Synuclein mRNA Translation in H4 Neuroglioblastoma Cells. [Related pubchem assays: 1829 (Project Summary), 1814 (Primary HTS)]; format: functional
# [13] = Luminescence Cell-Based Dose Response HTS to Identify Activators of Luciferase Translation or Activity in H4 […] Cells. [Related pubchem assays: 1829 (Project Summary), 1814 (Primary HTS)]; format: functional
# HeLa = assay: ATP-based viability loss in HeLa cells – cell-based, CellTiter-Glo luminescence, cherry-pick samples, cytotoxicity control for MITF activator project, dose response (AID 540259); format: functional; settings: Homo sapiens
# Large T antigen = Large T antigen (Simian virus 40, UniProt P03070); format: functional, Betapolyomavirus macacae;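 note: Confirmatory-stage PubChem screen for compounds that inhibit SV40 T antigen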
# [14] = target: T3, Microphthalmia-associated transcription factor (Homo sapiens, UniProt O75030); assay: reducers of TRPM1 reporter luminescence, concentration series – cell-based, SK-MEL-5, cherry-picked, set 3, MITF inhibitor project, dose response (AID 493073); format: functional;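 note: SK-MEL-5 melanoma cells with luciferase driven by the MITF target TRPM1 promoter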
# T3 sequence (O75030 whole entry): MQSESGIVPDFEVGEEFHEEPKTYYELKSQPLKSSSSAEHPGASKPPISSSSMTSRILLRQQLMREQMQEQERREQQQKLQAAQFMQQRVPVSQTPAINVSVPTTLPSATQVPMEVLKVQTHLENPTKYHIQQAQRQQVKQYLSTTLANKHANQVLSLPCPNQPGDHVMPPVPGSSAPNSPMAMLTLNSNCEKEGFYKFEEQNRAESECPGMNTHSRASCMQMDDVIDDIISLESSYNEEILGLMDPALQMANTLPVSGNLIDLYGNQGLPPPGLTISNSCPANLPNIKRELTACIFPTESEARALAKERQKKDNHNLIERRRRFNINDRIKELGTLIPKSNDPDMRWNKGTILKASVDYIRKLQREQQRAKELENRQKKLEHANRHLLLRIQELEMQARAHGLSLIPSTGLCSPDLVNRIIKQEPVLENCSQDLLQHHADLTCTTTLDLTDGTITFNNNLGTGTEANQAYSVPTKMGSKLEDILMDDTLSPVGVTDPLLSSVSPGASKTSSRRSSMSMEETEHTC
# [15] = target: Heat shock protein HSP 90-alpha (Homo sapiens, UniProt P07900); format: functional, organism-based
# Vero = assay: viability of Vero cells under compound – cytotoxicity control for flavivirus capping enzyme inhibitors (AID 588742); format: functional; settings: Chlorocebus sabaeus
# Genome polyprotein = Genome polyprotein (dengue virus type 2, UniProt P29990); assay: flavivirus cap methylation enzyme inhibition – biochemical, confirmation dose response, primary screen (AID 588689); format: functional
# A-375 = assay: MITF: Counter assay: A375 proliferation Measured in Cell-Based System Using Plate Reader - 2084-03_Inhibitor_Dose_DryPowder_Activity. [Related pubchem assays (depositor defined):AID488944]; format: functional; settings: Homo sapiens
# [16] = target: T4, Rac GTPase-activating protein 1 (Homo sapiens, UniProt Q9H0H5); assay: blockers of MgcRacGAP-driven Rac1 GTP hydrolysis – biochemical, ADP Hunter fluorescence, primary and confirmatory, confirmation (AID 624330); format: functional
# T4 sequence (Q9H0H5 whole entry): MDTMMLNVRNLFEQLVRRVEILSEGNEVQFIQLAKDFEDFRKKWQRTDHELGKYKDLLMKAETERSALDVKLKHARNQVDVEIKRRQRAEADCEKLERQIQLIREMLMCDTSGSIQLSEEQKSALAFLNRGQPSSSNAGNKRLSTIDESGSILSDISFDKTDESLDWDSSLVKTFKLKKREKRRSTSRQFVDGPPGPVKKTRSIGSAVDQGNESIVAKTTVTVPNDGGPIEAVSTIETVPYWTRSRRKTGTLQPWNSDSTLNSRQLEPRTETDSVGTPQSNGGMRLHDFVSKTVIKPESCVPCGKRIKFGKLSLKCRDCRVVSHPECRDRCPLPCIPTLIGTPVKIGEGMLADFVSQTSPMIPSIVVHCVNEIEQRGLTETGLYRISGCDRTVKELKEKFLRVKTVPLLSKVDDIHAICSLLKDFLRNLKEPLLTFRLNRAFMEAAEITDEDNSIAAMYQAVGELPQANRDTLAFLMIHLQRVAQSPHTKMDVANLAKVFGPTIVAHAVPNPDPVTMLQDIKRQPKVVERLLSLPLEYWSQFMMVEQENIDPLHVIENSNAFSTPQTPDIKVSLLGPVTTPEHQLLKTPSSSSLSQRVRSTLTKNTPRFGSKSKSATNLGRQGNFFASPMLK
# HEK293 [17] = assay: cells; settings: Homo sapiens
# [18] = decrease of insulin promoter-GFP reporter – imaging, high-content screening, mouse beta cells (AID 1628); format: functional; settings: MIN6
# [19] = MIN6 cell viability loss – mouse insulinoma, cytotoxicity control, dose response (AID 2122); format: functional;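 note: confirmatory high-throughput counterscreen run to flag cytotoxic compounds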
# HEK293 [20] = assay: cells; settings: Homo sapiens; remark: listed apart in the source
# Chain of Dual specificity protein kinase CLK1 (P49759 whole entry): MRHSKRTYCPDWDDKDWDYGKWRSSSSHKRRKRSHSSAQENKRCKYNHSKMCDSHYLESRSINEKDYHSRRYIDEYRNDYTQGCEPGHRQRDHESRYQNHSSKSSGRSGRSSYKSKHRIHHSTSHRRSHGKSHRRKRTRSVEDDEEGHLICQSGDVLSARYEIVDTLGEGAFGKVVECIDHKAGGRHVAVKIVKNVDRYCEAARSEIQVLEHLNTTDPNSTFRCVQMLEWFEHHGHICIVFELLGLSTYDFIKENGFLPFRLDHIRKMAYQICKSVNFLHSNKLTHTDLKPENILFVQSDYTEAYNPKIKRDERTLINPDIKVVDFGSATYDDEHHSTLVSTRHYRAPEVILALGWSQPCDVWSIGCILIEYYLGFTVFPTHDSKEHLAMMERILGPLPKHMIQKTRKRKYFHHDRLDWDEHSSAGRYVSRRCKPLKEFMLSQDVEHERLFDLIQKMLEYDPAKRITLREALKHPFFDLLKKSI
# Chain of Genome polyprotein (P29990 2492-3391 limits assumed): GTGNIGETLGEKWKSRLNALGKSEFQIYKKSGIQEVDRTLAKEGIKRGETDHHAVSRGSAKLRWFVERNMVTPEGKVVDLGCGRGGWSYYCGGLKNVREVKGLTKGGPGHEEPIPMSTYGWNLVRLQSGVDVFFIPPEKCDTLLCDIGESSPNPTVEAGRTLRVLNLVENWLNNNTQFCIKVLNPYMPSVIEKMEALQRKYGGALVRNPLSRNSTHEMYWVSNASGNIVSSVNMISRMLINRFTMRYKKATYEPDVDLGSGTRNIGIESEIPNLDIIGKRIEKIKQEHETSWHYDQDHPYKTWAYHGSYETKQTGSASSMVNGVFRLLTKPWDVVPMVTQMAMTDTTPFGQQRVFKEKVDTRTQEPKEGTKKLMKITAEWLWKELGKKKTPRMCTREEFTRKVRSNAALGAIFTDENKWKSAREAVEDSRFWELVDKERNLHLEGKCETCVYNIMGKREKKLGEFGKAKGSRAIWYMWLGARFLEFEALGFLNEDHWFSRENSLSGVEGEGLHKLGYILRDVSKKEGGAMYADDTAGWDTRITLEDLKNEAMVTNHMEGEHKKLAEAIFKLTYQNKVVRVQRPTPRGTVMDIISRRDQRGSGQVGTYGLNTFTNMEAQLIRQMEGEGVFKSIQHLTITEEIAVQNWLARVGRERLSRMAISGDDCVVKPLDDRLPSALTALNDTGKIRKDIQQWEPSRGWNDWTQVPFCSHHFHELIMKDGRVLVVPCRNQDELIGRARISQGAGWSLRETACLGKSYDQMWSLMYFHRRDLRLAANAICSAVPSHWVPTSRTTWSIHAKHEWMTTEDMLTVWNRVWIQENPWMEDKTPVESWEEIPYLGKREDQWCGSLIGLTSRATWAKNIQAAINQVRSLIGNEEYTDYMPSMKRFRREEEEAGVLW
# Chain of Induced myeloid leukemia cell differentiation protein Mcl-1 (Q07820 whole entry): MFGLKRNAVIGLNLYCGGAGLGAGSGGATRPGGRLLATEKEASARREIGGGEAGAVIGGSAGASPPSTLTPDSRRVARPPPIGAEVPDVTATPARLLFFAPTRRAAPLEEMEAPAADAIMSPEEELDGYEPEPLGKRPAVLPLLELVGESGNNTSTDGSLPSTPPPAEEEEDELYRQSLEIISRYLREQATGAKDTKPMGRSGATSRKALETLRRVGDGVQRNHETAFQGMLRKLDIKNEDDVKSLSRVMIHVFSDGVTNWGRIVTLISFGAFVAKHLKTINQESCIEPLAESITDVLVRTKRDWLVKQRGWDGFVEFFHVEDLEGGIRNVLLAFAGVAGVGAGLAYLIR
# Chain of Beta-galactosidase (Q8VNN2 whole entry): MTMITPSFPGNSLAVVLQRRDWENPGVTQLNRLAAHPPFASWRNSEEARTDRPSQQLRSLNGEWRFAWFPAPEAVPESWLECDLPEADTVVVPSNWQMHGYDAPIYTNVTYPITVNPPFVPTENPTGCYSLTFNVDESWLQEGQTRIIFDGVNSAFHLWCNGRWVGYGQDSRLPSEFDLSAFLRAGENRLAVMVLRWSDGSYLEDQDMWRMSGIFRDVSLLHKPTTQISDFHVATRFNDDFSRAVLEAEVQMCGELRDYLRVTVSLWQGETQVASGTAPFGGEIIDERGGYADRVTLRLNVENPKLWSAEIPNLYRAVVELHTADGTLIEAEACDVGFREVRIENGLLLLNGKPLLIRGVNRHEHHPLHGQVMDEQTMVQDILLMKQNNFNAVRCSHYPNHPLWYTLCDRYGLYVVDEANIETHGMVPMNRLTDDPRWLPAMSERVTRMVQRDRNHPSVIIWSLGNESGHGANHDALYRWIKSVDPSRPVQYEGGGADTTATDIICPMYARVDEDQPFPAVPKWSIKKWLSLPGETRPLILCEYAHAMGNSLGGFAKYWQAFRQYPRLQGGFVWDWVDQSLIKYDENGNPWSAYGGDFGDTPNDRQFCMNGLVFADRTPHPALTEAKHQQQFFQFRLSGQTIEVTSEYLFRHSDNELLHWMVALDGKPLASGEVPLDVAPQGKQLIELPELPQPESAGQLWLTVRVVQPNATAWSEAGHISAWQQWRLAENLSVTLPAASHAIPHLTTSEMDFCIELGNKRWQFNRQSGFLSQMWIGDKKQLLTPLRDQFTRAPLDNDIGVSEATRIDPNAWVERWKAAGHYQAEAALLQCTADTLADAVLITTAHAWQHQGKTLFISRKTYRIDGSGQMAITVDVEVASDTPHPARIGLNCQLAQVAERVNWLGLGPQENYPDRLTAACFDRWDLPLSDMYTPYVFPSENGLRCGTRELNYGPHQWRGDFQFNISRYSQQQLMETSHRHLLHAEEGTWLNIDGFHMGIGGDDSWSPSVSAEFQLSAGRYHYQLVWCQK
# Chain of Type-1 angiotensin II receptor (P30556 whole entry): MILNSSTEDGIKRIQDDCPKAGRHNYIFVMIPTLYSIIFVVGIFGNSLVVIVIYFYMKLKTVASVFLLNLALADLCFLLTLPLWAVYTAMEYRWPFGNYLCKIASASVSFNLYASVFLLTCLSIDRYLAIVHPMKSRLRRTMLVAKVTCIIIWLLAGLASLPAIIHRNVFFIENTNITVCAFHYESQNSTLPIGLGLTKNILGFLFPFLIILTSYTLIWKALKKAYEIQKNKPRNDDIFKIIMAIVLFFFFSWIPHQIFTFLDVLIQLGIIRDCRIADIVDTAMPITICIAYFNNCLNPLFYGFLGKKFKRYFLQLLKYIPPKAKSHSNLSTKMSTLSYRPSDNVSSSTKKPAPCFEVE
# Chain of COUP transcription factor 2 (P24468 whole entry): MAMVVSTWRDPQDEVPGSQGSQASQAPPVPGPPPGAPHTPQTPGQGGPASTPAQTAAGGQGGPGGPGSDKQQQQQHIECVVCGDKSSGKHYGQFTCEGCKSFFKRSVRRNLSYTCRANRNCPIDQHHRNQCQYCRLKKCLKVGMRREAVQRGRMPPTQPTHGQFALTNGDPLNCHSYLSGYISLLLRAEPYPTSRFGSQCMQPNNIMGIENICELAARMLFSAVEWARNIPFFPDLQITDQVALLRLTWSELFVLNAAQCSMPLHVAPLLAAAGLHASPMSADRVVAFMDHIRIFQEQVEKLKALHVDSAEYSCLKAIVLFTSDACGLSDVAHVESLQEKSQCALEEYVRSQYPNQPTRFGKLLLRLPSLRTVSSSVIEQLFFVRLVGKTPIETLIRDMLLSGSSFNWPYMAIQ
# Chain of Beta-2 adrenergic receptor (P07550 whole entry): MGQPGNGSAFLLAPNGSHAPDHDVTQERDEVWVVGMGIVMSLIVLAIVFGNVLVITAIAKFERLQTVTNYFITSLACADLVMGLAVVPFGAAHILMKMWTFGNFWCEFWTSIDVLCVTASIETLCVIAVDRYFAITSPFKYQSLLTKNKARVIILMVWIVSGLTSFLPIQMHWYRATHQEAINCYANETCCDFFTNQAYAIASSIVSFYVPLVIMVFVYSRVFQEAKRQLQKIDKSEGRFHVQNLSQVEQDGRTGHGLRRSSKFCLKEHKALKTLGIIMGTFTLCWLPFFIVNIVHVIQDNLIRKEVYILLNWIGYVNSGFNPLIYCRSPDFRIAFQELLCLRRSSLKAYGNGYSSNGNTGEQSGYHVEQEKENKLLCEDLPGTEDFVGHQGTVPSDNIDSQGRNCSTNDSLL
# Chain of Large T antigen (P03070 whole entry): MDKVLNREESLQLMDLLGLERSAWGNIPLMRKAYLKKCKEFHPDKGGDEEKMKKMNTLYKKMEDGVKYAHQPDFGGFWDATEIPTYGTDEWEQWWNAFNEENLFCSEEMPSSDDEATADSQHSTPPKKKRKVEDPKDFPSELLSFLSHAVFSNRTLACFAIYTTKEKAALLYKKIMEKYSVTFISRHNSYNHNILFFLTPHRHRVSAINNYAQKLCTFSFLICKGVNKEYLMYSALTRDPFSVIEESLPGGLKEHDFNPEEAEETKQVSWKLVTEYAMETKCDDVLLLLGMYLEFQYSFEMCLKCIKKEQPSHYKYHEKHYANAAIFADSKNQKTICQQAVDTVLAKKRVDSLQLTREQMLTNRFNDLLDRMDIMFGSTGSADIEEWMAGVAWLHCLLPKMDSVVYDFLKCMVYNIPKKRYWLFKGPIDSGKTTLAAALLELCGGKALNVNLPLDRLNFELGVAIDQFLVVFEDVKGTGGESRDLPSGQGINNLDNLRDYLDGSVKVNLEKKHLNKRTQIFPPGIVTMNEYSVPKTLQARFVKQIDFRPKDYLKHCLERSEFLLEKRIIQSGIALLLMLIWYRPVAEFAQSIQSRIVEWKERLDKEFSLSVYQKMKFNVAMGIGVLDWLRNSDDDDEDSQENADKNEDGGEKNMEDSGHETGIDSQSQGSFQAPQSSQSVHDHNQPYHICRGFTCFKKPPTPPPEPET
# Chain of Eukaryotic translation initiation factor 4E (P63073 whole entry): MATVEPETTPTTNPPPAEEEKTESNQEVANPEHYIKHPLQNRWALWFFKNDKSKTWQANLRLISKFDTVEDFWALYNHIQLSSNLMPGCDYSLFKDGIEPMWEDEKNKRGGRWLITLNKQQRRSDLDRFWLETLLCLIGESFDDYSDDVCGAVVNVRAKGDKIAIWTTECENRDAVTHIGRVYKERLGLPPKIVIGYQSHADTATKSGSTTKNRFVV
smiles,measurement,setting,value
Cc1nc(CNc2ncnc3ccc(-c4ccc5c(c4)OCO5)cc23)cs1,AC50,[1],0.0354 µM (active)
Cc1ccc(C)c(S(=O)(=O)Nc2cc(SCC(=O)O)c(O)c3ccccc23)c1,IC50,[2],13.8 µM (active)
same,AC50,[3],4.94 µM (active)
same,IC50,Hexokinase HKDC1 [4],2.96 µM (active)
same,IC50,Hexokinase-1,> 80 µM (inactive)
same,IC50,[5],> 64 µM (inactive)
same,AC50,INS1,4.28 µM (active)
same,IC50,Hexokinase HKDC1 [6],10.2 µM (active)
O=C(Nc1ccc2c[nH]nc2c1)c1ccccc1F,AC50,[7],20.8 µM (active)
same,EC50,H4,> 120 µM (not active)
O=C(CCC(=O)OCC(=O)c1cccc([N+](=O)[O-])c1)NC1CCCCC1,EC50,Beta-galactosidase,> 40 µM (inactive)
same,IC50,[8],25.2 µM (not active)
Cc1ccc(OCc2nnc(SCc3nc4ccccc4[nH]3)n2Cc2ccco2)cc1,EC50,[9],1.08 µM (active)
CCCCCCn1ccc(=N)cc1,IC50,[10],15.8 µM (inactive)
same,IC50,Jurkat,> 80 µM (inactive)
same,IC50,[11],13 µM (active)
same,AC50,INS1,3.13 µM (active)
COC(=O)c1ccc(N2CCN(c3ccccc3)CC2)nc1,EC50,[12],> 120 µM (not active)
same,EC50,[13],> 120 µM (not active)
same,AC50,HeLa,53.8 µM (active)
same,EC50,H4,0.114 µM (active)
O=C(O)/C=C/C(=O)c1ccc2c(c1)CCc1ccccc1-2,IC50,Large T antigen,34.5 µM (active)
same,AC50,[14],15 µM (active)
same,AC50,[15],16.6 µM (active)
same,CC50,Vero,17.2 µM (active)
same,IC50,Genome polyprotein,22.9 µM (active)
same,AC50,A-375,35 µM (active)
Nc1ccccc1Nc1cccc(C(F)(F)F)c1,IC50,[16],89 µM (active)
same,EC50,HEK293 [17],> 59.6 µM (inactive)
same,IC50,[18],4.45 µM (active)
same,IC50,[19],5.09 µM (active)
same,EC50,HEK293 [20],> 59.6 µM (inactive)
